Assay results reported in EP0327365B1, “Improvements in or relating to modified haptens useful as imaging and therapeutic agents” (HYBRITECH INCORPORATED, priority 1988, dated 1989).

Assays:
T-380 tumors = assay: Hapten biodistribution, premix protocol with bifunctional antibody ECH037.2; format: in vivo, nude mice; set-up: TOTAL RECOV: unit not given here; details: for % DOSE PER GRAM, KIDNEY / % DOSE PER GRAM, LIVER / % DOSE PER GRAM, TUMOR / FECES / TOTAL RECOV / URINE / % DOSE PER GRAM, BLOOD / TUMOR/BLOOD: premix with 20 µg ECH037.2; for % DOSE PER GRAM, BLOOD: 111In-labeled hapten i.v.; for TUMOR/BLOOD: ratio; for Percent Injected Dose in Feces: premix protocol (Table VI); for %Dose per Gram, Blood / %Dose per Gram, Tumor: premix with 20 µg ECH037.2 (Table VIII)
Description: Two protocols were used for examining the biodistribution of the derivatized haptens in the presence of the bifunctional antibody ECH037.2. In a premix protocol, ECH037.2 and the derivatized hapten were combined prior to injection in the animals. In the prelocalization protocol, ECH037.2 was injected into the animals, and the antibody was allowed to prelocalize for 24 hours prior to injection of the radiolabeled hapten.
Biodistribution studies were performed in nude mice carrying subcutaneous implants of the human colon carcinoma cell line T-380 which expresses the carcinoembryonic antigen (CEA) recognized by ECH037.2. Briefly, Balb/C Nu/Nu mice were injected subcutaneously with a minced preparation of T-380 tumor implants and maintained for approximately two weeks, or until the tumor implant had grown to a size of approximately 0.5 grams as described by Hagan, P.L., et al. J. Nuc. Med., 26 1418-1423 (1985). Mice were kept in a sterile environment to prevent complications due to bacterial or viral infections. Biodistributions were performed as described by Halpern, S., et al., Cancer Res. 43, 5347-5355 (1983). Briefly, the radiolabeled haptens were injected intravenously in […], and the pharmacokinetics were evaluated at several time points post-injection. At these times, mice were sacrificed and weighed. Organs were removed, their weight recorded, and each organ was then washed in sterile PBS, pH 7.0, and fixed in formalin solution. Samples of blood, urine and feces also were collected and their weight similarly recorded. The organs, or a portion thereof, were transferred to clean tubes and their radioactive content was determined in a well-type gamma-counter.
Relative radioactive content of each organ was expressed as a percentage of injected dose per organ.
To indium-label the haptens of the invention 10 »l of 0.1 mM ligand was combined with X »l of ¹¹¹InCl₃ (in 50 mM HCl) and (x+10) »l of 0.26 M ammonium citrate, pH 6.0. X is calculated by the following equation: X = (200 »Ci)/(A »Ci/»l) [formula] where A is the specific activity of the ¹¹¹In.
The labeling was done in an acid-washed microfuge tube. After combining all of the components above, the solution was vortexed and allowed to stand at room temperature for 15 minutes.
Incorporation of the ¹¹¹In into the chelating agent was determined by TLC on silica in a methanol/aqueous ammonium acetate solvent system as described by Meares, et al. (Anal. Biochem., 142, 68-75 (1984)). Greater than 95% incorporation of the radioactivity into the chelate was required for the sample to be submitted for a biodistribution assay.
Prior to injection the ¹¹¹In-labeled hapten was diluted into freshly prepared isotonic sodium bicarbonate (1.39% w/v) containing 1 mg/ml normal human serum albumin (Buminate, 25% solution, Travenol Laboratories, Glendale, California) to which the bifunctional antibody had been added. The final composition of the solution was 0.2 mg/ml ECH037.2, 0.5 »M chelate, 0.1 »Ci/»l ¹¹¹In, all in a volume of 2.0 ml. For the biodistribution studies, 100 »l of the solution was injected into the tail vein of each animal.

[1] = test system: monoclonal antibody CHA255; assay: Determination of hapten-antibody dissociation rates; format: binding, BALB/c mice; details: 22°C; indium complex of hapten from CHA255 after 100 fold excess of indium-115 loaded hapten
Description: Hapten-antibody dissociation rates were determined using monoclonal antibody CHA255, prepared as described in Example 2A, by measuring the quantity of ¹¹¹In³⁺ chelate released from the antibody hapten complex as a function of time after addition of a 100 fold excess (over antibody binding sites) of indium-115 loaded hapten. Thus, for each hapten, a 700 »l solution was prepared containing: antibody at a concentration of 160 nM; indium loaded hapten, trace labeled with ¹¹¹In (total concentration = 160 nM); normal human serum albumin at a total concentration of 1.5 mg/mL; and isotonic phosphate buffered saline, (10 mM PO₄²⁻, 150 mM NaCl, pH 7.2). Indium-115 loaded hapten was added to a final Concentration of […]. Reactions were stirred by placing the sample containers ir a rack mounted on a vortexer head.
At various times after addition of the excess hapten, […] portions of the reaction solutions were transferred to Centrifree tubes (Amicon Corperation, Danvers, Massachusetts) and centrifuged at 1500xg for eight to ten minutes. The reaction time was taken to be the time between addition of the excess hapten and the time the centrifuge reached the desired velocity. Six timepoints, each in duplicate, were obtained over a range of about two reaction half-lives for each rate constant determination. A 200 »l portion from each centrifuged and uncentrifuged solution was then counted for ¹¹¹In. The relative concentration of free hapten was taken to be the ratio of counts in the centrifuged solution to the uncentrifuged solution at each timepoint. Times were recorded to the nearest tenth of a minute.
Room temperature rate constants were measured without the aid of a constant temperature bath. The ambient temperature remained at 22°±1 C.
Rate constants and standard deviations were obtained from a plot of the logarithm of relative complex concentration vs. time. Data were analyzed using the linear regression module of the RS/1 Program (BBN Software Products Corporation, Cambridge, Massachusetts).
Control samples were included in each experiment to determine: A) that the initial condition of 100% of labeled hapten bound to antibody was met, and B) that in the absence of antibody, 100% of counts were able to penetrate the Centrifree membrane. […]

Row | SMILES | % DOSE PER GRAM, KIDNEY (T-380 tumors; 24 hours) [% DOSE PER GRAM] | % DOSE PER GRAM, LIVER (T-380 tumors; 24 hours) [% DOSE PER GRAM] | % DOSE PER GRAM, TUMOR (T-380 tumors; 24 hours) [% DOSE PER GRAM] | FECES (T-380 tumors; 24 hours) | TOTAL RECOV (T-380 tumors; 24 hours) | URINE (T-380 tumors; 24 hours) | % DOSE PER GRAM, BLOOD (T-380 tumors; 24 hours) [% DOSE PER GRAM] | TUMOR/BLOOD (T-380 tumors; 24 hours) | Percent Injected Dose in Feces (T-380 tumors; 24 hrs.) [Percent Injected Dose] | % DOSE PER GRAM, KIDNEY (T-380 tumors; 48 hours) [% DOSE PER GRAM] | % DOSE PER GRAM, LIVER (T-380 tumors; 48 hours) [% DOSE PER GRAM] | % DOSE PER GRAM, TUMOR (T-380 tumors; 48 hours) [% DOSE PER GRAM] | FECES (T-380 tumors; 48 hours) | TOTAL RECOV (T-380 tumors; 48 hours) | URINE (T-380 tumors; 48 hours) | % DOSE PER GRAM, BLOOD (T-380 tumors; 48 hours) [% DOSE PER GRAM] | TUMOR/BLOOD (T-380 tumors; 48 hours) | Percent Injected Dose in Feces (T-380 tumors; 48 hrs.) [Percent Injected Dose] | t1/2, Dissociation Half-Lives [1] [h] | also measured
1 | O=C(O)CN(CC(=O)O)CC(Cc1ccc(NC(=S)NCc2ccccc2)cc1)N(CC(=O)O)CC(=O)O (centres unmarked) [BETUBE] | 2.5 | 2.7 | 8.0 | 17.4% of total injected dose | 44.6 | 8.4% of total injected dose | 9.0 | 0.89 | 17.4 | 1.5 | 1.9 | 7.5 | 29.0% of total injected dose | 54.2 | 12.0% of total injected dose | 5.5 | 1.36 | 29.0 | 1.57 | 
2 | O=C(O)CCNC(=S)Nc1ccc(CC(CN(CC(=O)O)CC(=O)O)N(CC(=O)O)CC(=O)O)cc1 (centres unmarked) [PATUBE] | 2.2 | 3.3 | 10.6 | 5.0% of total injected dose | 53.7 | 23.6% of total injected dose | 12.2 | 0.87 | 5.0 | 1.7 | 2.4 | 9.8 | 8.9% of total injected dose | 61.7 | 36.0% of total injected dose | 7.6 | 1.29 | 8.9 | 1.46 | 
3 | CC(=O)NC(CCCCNC(=S)Nc1ccc(CC(CN(CC(=O)O)CC(=O)O)N(CC(=O)O)CC(=O)O)cc1)C(N)=O (centres unmarked) [BALTUBE] | 3.6 | 4.0 | 13.0 | 6.8% of total injected dose | 52.0 | 16.3% of total injected dose | 11.0 | 1.18 | 8.5 | 1.9 | 2.2 | 12.9 | 13.8% of total injected dose | 57.8 | 26.5% of total injected dose | 5.2 | 2.48 | 13.8 | 1.52 | 
4 | NCCNC(=S)Nc1ccc(CC(CN(CC(=O)O)CC(=O)O)N(CC(=O)O)CC(=O)O)cc1 (centres unmarked) [NUBE] | 4.0 | 3.1 | 8.5 | 5.9% of total injected dose | 66.3 | 42.5% of total injected dose | 5.9 | 1.44 | 5.9 | 2.5 | 1.9 | 8.1 | 12.9% of total injected dose | 74.1 | 52.6% of total injected dose | 2.0 | 4.0 | 12.9 | 0.76 | %Dose per Gram, Blood (T-380 tumors; 24 hrs. post-injection): 5.8 %Dose per Gram; %Dose per Gram, Tumor (T-380 tumors; 24 hrs. post-injection): 11.7 %Dose per Gram; %Dose per Gram, Blood (T-380 tumors; 48 hrs. post-injection): 3.3 %Dose per Gram; %Dose per Gram, Tumor (T-380 tumors; 48 hrs. post-injection): 12.2 %Dose per Gram; %Dose per Gram, Blood (T-380 tumors; 72 hrs. post-injection): 0.7 %Dose per Gram; %Dose per Gram, Tumor (T-380 tumors; 72 hrs. post-injection): 10.5 %Dose per Gram
5 | CCNC(=S)Nc1ccc(CC(CN(CC(=O)O)CC(=O)O)N(CC(=O)O)CC(=O)O)cc1 (centres unmarked) [ETUBE] | 2.4 | 3.5 | 8.0 | 5.9% of total injected dose | 52.2 | 25.8% of total injected dose | 10.4 | 0.77 | 6.7 | 1.2 | 2.4 | 10.4 | 15.2% of total injected dose | 66.6 | 36.0% of total injected dose | 5.9 | 1.76 | 15.2 | 1.21 | amount of hapten in the tumor (T-380 tumors; 24 hrs., premix protocol): 8.0 percent injected dose/gram; injected material excreted in the feces (T-380 tumors; 48 hrs. post injection, premix protocol): 15.2% of the injected material; amount of hapten in the tumor (T-380 tumors; 48 hrs., premix protocol): 10.4 percent injected dose/gram
